Read-outs that look alike come from different tables or passages of the source.
Settings: surfactant applied for 2 minutes to plates coated with 100 μg/ml LPS, absorbance 620 nm, FIG. 6
Protocol: To measure the removal of bacterial lipopolysaccharide, a HEK-Blue LPS detection kit (InvivoGen, San Diego, Calif., USA) was used. 24-well plates were coated with 100 μg/ml of an LPS standard (E. coli K12 LPS) and allowed to stand at 4° C. for 8 hours. […] HEK-Blue cells were dispersed in detection media, after which the cells were seeded onto the plates at a density of 4×10^4 cells/well and cultured at 37° C. for 24 hours. The absorbance at a wavelength of 620 nm was measured using a microplate reader (BIO-TEK, Winooski, Vt., USA). The ratio of the remaining LPS standard was calculated using the absorbance of a lipopolysaccharide-free water-coated well as a blank.

| Substance | relative ratio of the remaining LPS standard | relative ratio of the remaining LPS standard (listed as octyl phenol ethoxylate) |
| --- | --- | --- |
| octyl phenol ethoxylate [Triton X-100] | the ratio of the remaining LPS standard was the lowest | has the best effect on the removal of lipopolysaccharide |
| Sorbitan monooleate [Span 80] | higher in the order of polyoxyethylene (HLB 10)<Tween 20 (HLB 16)<Span 80 (HLB 4) |  |
| Tween 20 | higher in the order of polyoxyethylene (HLB 10)<Tween 20 (HLB 16)<Span 80 (HLB 4) |  |
